Experimental data published in patent publication US10093630B2, “Pyrazole compounds and methods of making and using same” (ABIDE THERAPEUTICS, INC., priority 2014, dated 2018).

Columns and labels:
Assay in all cases: In vitro competitive activity-based protein profiling (gel-based, FP-Rh or HT-01 probe)
Assay type in all cases: biochemical
FAAH = target: T1, FAAH (Mus musculus, UniProt O08914); details: for inhibition at 1 µM: 1 μM inhibitor, read-out: % Inhibition at 1 μM, B = FAAH; for inhibition at 10 µM: 10 μM inhibitor, read-out: % Inhibition at 10 μM, B = FAAH; for IC50: mouse brain membrane fraction or cell lysates, 30 min preincubation at 37° C., read-out: Mouse (IC50 value, nM) FAAH
T1 construct: Proteomes (mouse brain membrane fraction or cell lysates); from tissue; host or cells: mouse brain membrane fraction (or cell lysates, not specified)
T1 sequence (O08914 1-579): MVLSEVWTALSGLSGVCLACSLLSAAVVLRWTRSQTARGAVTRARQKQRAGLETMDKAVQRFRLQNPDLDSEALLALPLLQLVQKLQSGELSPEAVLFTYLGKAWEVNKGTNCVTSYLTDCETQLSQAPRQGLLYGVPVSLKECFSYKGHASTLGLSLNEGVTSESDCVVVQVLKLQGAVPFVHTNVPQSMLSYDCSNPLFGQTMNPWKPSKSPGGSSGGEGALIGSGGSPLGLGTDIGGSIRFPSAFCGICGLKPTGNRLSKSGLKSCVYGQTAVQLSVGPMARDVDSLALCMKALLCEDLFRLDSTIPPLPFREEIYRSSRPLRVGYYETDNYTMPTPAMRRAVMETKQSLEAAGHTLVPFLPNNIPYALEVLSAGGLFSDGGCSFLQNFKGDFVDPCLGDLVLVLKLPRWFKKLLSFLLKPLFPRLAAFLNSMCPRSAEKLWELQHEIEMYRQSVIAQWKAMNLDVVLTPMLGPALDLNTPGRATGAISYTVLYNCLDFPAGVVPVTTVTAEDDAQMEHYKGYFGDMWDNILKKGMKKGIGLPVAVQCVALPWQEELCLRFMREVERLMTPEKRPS
Experimental: (§1) In Vitro Competitive Activity-Based Protein Profiling.
(§2) Proteomes (mouse brain membrane fraction or cell lysates) (50 μL, 1.0 mg/mL total protein concentration) were preincubated with varying concentrations of inhibitors at 37° C. After 30 min, FP-Rh or HT-01 ([…], 50 μM in DMSO) was added and the mixture was incubated for another 30 min at 37° C. Reactions were quenched with SDS loading buffer (15 μL—4×) and run on SDS-PAGE. Following gel imaging, serine hydrolase activity was determined by measuring fluorescent intensity of gel bands corresponding to MAGL, ABHD6, FAAH, and PLA2G7 using ImageJ 1.43u software.

MAGL = target: T2, MAGL (Mus musculus, UniProt O35678); details: for inhibition at 1 µM: 1 μM inhibitor; for inhibition at 10 µM: 10 μM inhibitor; for IC50: mouse brain membrane fraction or cell lysates, 30 min preincubation at 37° C., read-out: Mouse (IC50 value, nM) MAGL
T2 construct: Proteomes (mouse brain membrane fraction or cell lysates); from tissue; host or cells: mouse brain membrane fraction (or cell lysates, not specified)
T2 sequence (O35678 1-303): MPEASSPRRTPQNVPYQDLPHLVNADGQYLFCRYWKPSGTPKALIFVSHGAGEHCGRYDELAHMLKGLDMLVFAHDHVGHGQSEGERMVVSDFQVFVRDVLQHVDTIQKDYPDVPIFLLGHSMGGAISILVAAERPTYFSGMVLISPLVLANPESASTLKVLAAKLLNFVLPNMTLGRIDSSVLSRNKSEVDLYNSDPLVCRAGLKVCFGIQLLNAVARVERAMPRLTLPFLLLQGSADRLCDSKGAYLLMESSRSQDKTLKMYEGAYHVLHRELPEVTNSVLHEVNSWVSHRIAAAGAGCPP
Experimental: as §1, §2

PLA2G7 = target: T3, PLA2G7 (Mus musculus, UniProt Q60963); details: for inhibition at 1 µM: 1 μM inhibitor, read-out: % Inhibition at 1 μM, D = PLA2G7; for inhibition at 10 µM: 10 μM inhibitor, read-out: % Inhibition at 10 μM, D = PLA2G7
T3 construct: Proteomes (mouse brain membrane fraction or cell lysates); from tissue; host or cells: mouse brain membrane fraction (or cell lysates, not specified)
T3 sequence (Q60963 22-440): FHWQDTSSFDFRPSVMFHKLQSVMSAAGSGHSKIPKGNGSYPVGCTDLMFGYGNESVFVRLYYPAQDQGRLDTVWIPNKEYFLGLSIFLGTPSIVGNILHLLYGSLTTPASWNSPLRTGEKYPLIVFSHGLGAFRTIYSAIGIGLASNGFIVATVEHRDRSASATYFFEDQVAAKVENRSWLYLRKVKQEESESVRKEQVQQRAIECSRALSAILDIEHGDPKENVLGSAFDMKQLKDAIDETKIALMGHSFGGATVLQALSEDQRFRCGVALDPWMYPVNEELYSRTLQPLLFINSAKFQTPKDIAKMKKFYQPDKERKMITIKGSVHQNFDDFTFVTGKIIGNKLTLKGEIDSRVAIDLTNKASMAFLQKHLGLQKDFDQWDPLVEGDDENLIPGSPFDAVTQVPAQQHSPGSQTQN
Experimental: as §1, §2

ABHD6 = target: T4, ABHD6 (Mus musculus, UniProt Q8R2Y0); details: for inhibition at 1 µM: 1 μM inhibitor, read-out: % Inhibition at 1 μM, C = ABHD6; for inhibition at 10 µM: 10 μM inhibitor, read-out: % Inhibition at 10 μM, C = ABHD6; for IC50: mouse brain membrane fraction or cell lysates, 30 min preincubation at 37° C., read-out: Mouse (IC50 value, nM) ABHD6
T4 construct: Proteomes (mouse brain membrane fraction or cell lysates); from tissue; host or cells: mouse brain membrane fraction (or cell lysates, not specified)
T4 sequence (Q8R2Y0 1-336): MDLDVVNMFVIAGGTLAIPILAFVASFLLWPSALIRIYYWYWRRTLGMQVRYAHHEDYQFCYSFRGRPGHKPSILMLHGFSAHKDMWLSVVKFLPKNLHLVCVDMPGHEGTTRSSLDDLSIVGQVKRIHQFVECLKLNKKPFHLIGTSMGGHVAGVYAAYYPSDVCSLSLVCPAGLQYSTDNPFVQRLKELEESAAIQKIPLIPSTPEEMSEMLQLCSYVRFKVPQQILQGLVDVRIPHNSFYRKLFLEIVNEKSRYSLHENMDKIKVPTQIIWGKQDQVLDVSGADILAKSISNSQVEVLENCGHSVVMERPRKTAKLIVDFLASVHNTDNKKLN
Experimental: as §1, §2

| inhibition at 1 µM (FAAH) [%] | inhibition at 10 µM (FAAH) [%] | inhibition at 1 µM (MAGL) [%] | inhibition at 10 µM (MAGL) [%] | inhibition at 1 µM (PLA2G7) [%] | inhibition at 10 µM (PLA2G7) [%] | inhibition at 1 µM (ABHD6) [%] | inhibition at 10 µM (ABHD6) [%] | IC50 (FAAH) [nM] | IC50 (MAGL) [nM] | IC50 (ABHD6) [nM] | SMILES |
| --- | --- | --- | --- | --- | --- | --- | --- | --- | --- | --- | --- |
| < 25 | > 75 | < 25 | 25 to 75 | < 25 | 25 to 75 | < 25 | > 75 | – | – | – | O=C(N1CCCCC1)n1cccn1 [Example 1, Piperidin-1-yl(1H-pyrazol-1-yl)methanone] |
| < 25 | > 75 | < 25 | 25 to 75 | < 25 | > 75 | 25 to 75 | > 75 | – | – | – | Cc1cnn(C(=O)N2CCCCC2)c1 [Example 2, (4-Methyl-1H-pyrazol-1-yl)(piperidin-1-yl)methanone] |
| > 75 | > 75 | > 75 | > 75 | > 75 | > 75 | > 75 | > 75 | – | – | – | N#Cc1cnn(C(=O)N2CCCCC2)c1 [Example 3, 1-(Piperidine-1-carbonyl)-1H-pyrazole-4-carbonitrile] |
| 25 to 75 | > 75 | > 75 | > 75 | – | – | > 75 | > 75 | > 1000 | < 100 | 100 to 1000 | O=C(N1CCN(Cc2c(N3CCCC3)cccc2C(F)(F)F)CC1)n1cc(F)cn1 [Example 113, (4-Fluoro-1H-pyrazol-1-yl)(4-(2-(pyrrolidin-1-yl)-6-(trifluoromethyl)benzyl)piperazin-1-yl)methanone] |
| < 25 | 25 to 75 | < 25 | < 25 | – | – | > 75 | > 75 | – | – | 100 to 1000 | Cc1ccccc1-c1cnn(C(=O)N2CCN(Cc3c(N4CCCC4)cccc3C(F)(F)F)CC2)c1 [Example 114, (4-(2-(Pyrrolidin-1-yl)-6-(trifluoromethyl)benzyl)piperazin-1-yl)(4-(o-tolyl)-1H-pyrazol-1-yl)methanone] |
| < 25 | < 25 | > 75 | > 75 | – | – | < 25 | > 75 | > 1000 | < 100 | > 1000 | Cc1cnn(C(=O)N2CCN(C(c3ccc(Cl)cc3)c3ccc(Cl)cc3)CC2)c1 [Example 117, (4-(Bis(4-chlorophenyl)methyl)piperazin-1-yl)(4-methyl-1H-pyrazol-1-yl)methanone] |
| < 25 | > 75 | > 75 | > 75 | – | – | > 75 | > 75 | > 1000 | < 100 | 100 to 1000 | O=C(N1CCN(C(c2ccc(Cl)cc2)c2ccc(Cl)cc2)CC1)n1cc(C(F)(F)F)cn1 [Example 118, (4-(Bis(4-chlorophenyl)methyl)piperazin-1-yl)(4-(trifluoromethyl)-1H-pyrazol-1-yl)methanone] |
| < 25 | < 25 | 25 to 75 | > 75 | – | – | < 25 | > 75 | – | – | – | O=C(N1CCN(C(c2ccc(Cl)cc2)c2ccc(Cl)cc2)CC1)n1cc(-c2ccccc2)cn1 [Example 119, (4-(Bis(4-chlorophenyl)methyl)piperazin-1-yl)(4-phenyl-1H-pyrazol-1-yl)methanone] |
| < 25 | < 25 | 25 to 75 | > 75 | – | – | 25 to 75 | > 75 | – | – | – | CC(C)c1cnn(C(=O)N2CCN(C(c3ccc(Cl)cc3)c3ccc(Cl)cc3)CC2)c1 [Example 120, (4-(Bis(4-chlorophenyl)methyl)piperazin-1-yl)(4-isopropyl-1H-pyrazol-1-yl)methanone] |
| < 25 | > 75 | > 75 | > 75 | – | – | < 25 | > 75 | > 1000 | < 100 | > 1000 | O=C(N1CCN(C(c2ccc(Cl)cc2)c2ccc(Cl)cc2)CC1)n1cc(F)cn1 [Example 121, (4-(Bis(4-chlorophenyl)methyl)piperazin-1-yl)(4-fluoro-1H-pyrazol-1-yl)methanone] |
| < 25 | – | > 75 | – | – | – | > 75 | – | > 1000 | < 100 | 100 to 1000 | O=C(N1CCN(Cc2ccc(C(F)(F)F)cc2N2CCCC2)CC1)n1cc(Cl)cn1 [Example 125, (4-Chloro-1H-pyrazol-1-yl)(4-(2-(pyrrolidin-1-yl)-4-(trifluoromethyl)benzyl)piperazin-1-yl)methanone] |
| > 75 | – | > 75 | – | – | – | > 75 | – | 100 to 1000 | < 100 | 100 to 1000 | O=C(N1CCN(Cc2ccc(C(F)(F)F)cc2N2CCCC2)CC1)n1cc(F)cn1 [Example 126, (4-Fluoro-1H-pyrazol-1-yl)(4-(2-(pyrrolidin-1-yl)-4-(trifluoromethyl)benzyl)piperazin-1-yl)methanone] |
| – | < 25 | – | < 25 | – | – | – | 25 to 75 | – | – | – | CC(=O)N1CCCN(C(=O)n2cc(Cl)cn2)CC1 [Example 188, 1-(4-(4-Chloro-1H-pyrazole-1-carbonyl)-1,4-diazepan-1-yl)ethanone] |
| – | < 25 | – | < 25 | – | – | – | < 25 | – | – | – | CN1CCCN(C(=O)n2cc(Cl)cn2)CC1 [Example 190, (4-Chloro-1H-pyrazol-1-yl)(4-methyl-1,4-diazepan-1-yl)methanone] |
| – | < 25 | – | < 25 | – | – | – | < 25 | – | – | – | Cc1cnn(C(=O)N(C)CCN(C)S(C)(=O)=O)c1 [Example 196, N,4-Dimethyl-N-(2-(N-methylmethylsulfonamido)ethyl)-1H-pyrazole-1-carboxamide] |
